Results reported in paper PMC7764243, “Alterins Produced by Oyster-Associated Pseudoalteromonas Are Antibacterial Cyclolipopeptides with LPS-Binding Activity” (Marine Drugs, 2020).
≈ marks a conversion by molar mass, not a printed value. *1 amine or outer side, *2 acyl side, *3 side chain or, on linkers, in order; H or OH if unused. Where a SMILES comes first, the peptide text is derived from it. Bridges are numbered along the chain shown (N, C = ends). [ ]: non-standard residue; d: D form. The star is where a group is joined. ξ: configuration not given here. Dab(3ξ-OH) = O=C([C@@H](N[*:1])C(O)CN[*:3])[*:2]; Decanoyl(3ξ-OH) = CCCCCCCC(O)CC(=O)*; X1 = C/C=C(/N[*:1])C(=O)[*:2]; Dab = NCC[C@H](N)C(=O)O

Legend:
[1] = test system: V. tasmaniensis LGP 32; format: cell-based, Vibrio tasmaniensis; conditions: V. tasmaniensis LGP 32; broth microdilution, 0.1 to 100 µM, 1.10^6 UFC/mL, 48 h, read by unaided eye
Experimental: (§1) Antibacterial activity was assayed against a panel of micro-organisms including human and aquaculture pathogenic bacterial species. MICs were performed and defined according to internationally recognized standards (CLSI [21]). Polymyxin B (PMB), an antibiotic CLP produced by Paenibacillus polymyxa, was used as positive control. The major produced alterins, i.e., alt_952, alt_954, alt_970 and alt_980 were assayed against the whole panel of target cells while the minor ones were only tested against a few bacterial strains (Table 2).
(§2) The bacterial strains Aeromonas caviae CIP 7616, Aeromonas hydrophila CIP 7614, Escherichia coli ML35, Escherichia coli SBS 363, Salmonella enterica CIP 8297 and Yersinia ruckeri ATCC 29473 were grown in Tryptic Soy Broth. The marine bacterial strains Vibrio crassostreaeJ2–9, Vibrio tasmaniensisLGP32, Vibrio tapetis CECT 4600 were grown in Marine Broth. All of them were cultivated at optimal temperature according to ATCC and CIP specifications. The strain Vibrio parahaemolyticus13-028A/3 was grown at 28 °C in Tryptic Soy Broth supplemented in NaCl (20 g.L^−1) according to [47]. The strains Pseudoalteromonas sp. hCg-6 and hCg-42 were cultured using a synthetic medium containing: 17.11 g sucrose, 30 g sea salts (Sigma-S9883), 7.6 g K2HPO4, 3 g KH2PO4 and 20 mL MEM 50X (Dulbecco) per liter. The cultures were grown at 18 °C for 72 h with shaking (100 rpm).
(§3) MICs were determined using broth microdilution method according to [21]. To resume, antibacterial compounds ranging from 0.1 to 100 µM were assayed against the target bacteria in mid-logarithmic phase culture (1.10^6 UFC.mL^−1) in adapted culture medium according to the strain. MICs were examined by unaided eye after a 48h-incubation time at the optimal temperature growth. The lipopeptide PMB (Sigma-P4932) was used as antibiotic control.

[2] = test system: E. coli ML35; format: cell-based, Escherichia coli; conditions: E. coli ML35 (long-chain LPS); broth microdilution, 0.1 to 100 µM, 1.10^6 UFC/mL, 48 h, read by unaided eye
Experimental: as §1, §2, §3

[3] = test system: E. coli SBS363; format: cell-based, Escherichia coli; conditions: E. coli SBS363 (short-chain LPS); broth microdilution, 0.1 to 100 µM, 1.10^6 UFC/mL, 48 h, read by unaided eye
Experimental: as §1, §2, §3

[4] = test system: Y. ruckeri ATCC 29473; format: cell-based, Yersinia ruckeri; conditions: Y. ruckeri ATCC 29473; broth microdilution, 0.1 to 100 µM, 1.10^6 UFC/mL, 48 h, read by unaided eye
Experimental: as §1, §2, §3

[5] = test system: V. tapetis CECT 4600T; format: cell-based, Vibrio tapetis; conditions: V. tapetis CECT 4600T; broth microdilution, 0.1 to 100 µM, 1.10^6 UFC/mL, 48 h, read by unaided eye
Experimental: as §1, §2, §3

[6] = LPS binding, surface plasmon resonance (Biacore); parameters: species or system Escherichia coli; conditions: CLPs immobilized (500–600 RU) on CM5 chip, titrated with LPS, 25 °C, 10 mM Hepes pH 7.4, 150 mM NaCl, 3 mM EDTA
Text: To gain insights into LPS-alterin interactions, we used an endotoxin detection assay, the QCL-1000^TM Endpoint chromogenic Limulus Amoebocyte Lysate (LAL) assay (Lonza). We compared alt_954, alt_970 and alt_980 for their ability to bind LPS from E. coli O111:B4. All alterins bound to LPS in a dose-dependent manner, as indicated by the reduction of biologically active LPS with increasing alterins concentrations (Figure 4A). […] To examine alterin LPS-binding properties in more detail, we performed a surface plasmon resonance (SPR) assay using the Biacore technology (GE Healthcare). The SPR binding measurements were performed using the alt_954 and alt_970. PMB was used as a positive control. The CLPs were immobilized to a CM5 sensor chip surface and titrated with LPS. […] The dose-dependent effect observed (Figure 4B) highlights the LPS-binding properties of the alterins. Both LPS-binding assays, i.e., LAL and SPR, are fully agreeing for alt_954. Moreover, the LPS-binding properties of alterins followed the same general pattern as that of antibacterial activity.
Surface plasmon resonance experiments were carried out at 25 °C using a BIACORE 3000 apparatus (GE Healthcare, Uppsala, Sweden). […] The binding level in RU was measured at the end of the binding after normalization to the same CLP coated level.

[7] = test system: V. tasmaniensis LGP32; assay: Viability (cultivability, CFU count) in seawater; format: cell-based, Vibrio tasmaniensis; conditions: 20 µM, 4 h incubation in sterile seawater, inoculum 1.10^6 UFC/mL, plated in duplicate
Experimental: As a first step, we have measured the antimicrobial activity of alt_952, alt_954, alt_970 and alt_980 against V. tasmaniensis LGP32 in seawater after a 4 hour-long incubation. […] The effects on membrane were also investigated under the same experimental conditions using live/dead bacterial viability kit for flow cytometry (Figure 6). A net cultivability loss of V. tasmaniensis (2-log reduction) was observed when incubated with alt_954 and alt_980 indicative of a bactericidal effect (Figure 7A). In these conditions, V. tasmaniensis was much less affected by alt_970 (1-log reduction) and not by alt_952 (Figure 7A).
[…] After a 4 h-long incubation, viable bacteria were counted. Diluted samples (50 µL) in sterile seawater were spread in duplicate on appropriate medium. Cultivable bacterial concentration (CFU mL^−1) was determined after overnight incubation at optimal growth temperature.

[8] = test system: V. parahaemolyticus 13-028A/3; format: cell-based, Vibrio parahaemolyticus; conditions: broth microdilution, 0.1 to 100 µM, 1.10^6 UFC/mL, 48 h, read by unaided eye
Experimental: as §1, §2, §3

[9] = test system: A. caviae CIP 7616; format: cell-based, Aeromonas caviae; conditions: broth microdilution, 0.1 to 100 µM, 1.10^6 UFC/mL, 48 h, read by unaided eye
Experimental: as §1, §2, §3

[10] = test system: P. aeruginosa ATCC 27853; format: cell-based, Pseudomonas aeruginosa; conditions: P. aeruginosa ATCC 27853; broth microdilution, 0.1 to 100 µM, 1.10^6 UFC/mL, 48 h, read by unaided eye
Experimental: as §1, §3

[11] = test system: S. enterica CIP 8297; format: cell-based, Salmonella enterica; conditions: broth microdilution, 0.1 to 100 µM, 1.10^6 UFC/mL, 48 h, read by unaided eye
Experimental: as §1, §2, §3

[12] = test system: Pseudoalteromonas hCg-42; format: cell-based, Pseudoalteromonas sp.; conditions: Pseudoalteromonas hCg-42 (producing strain); broth microdilution, 0.1 to 100 µM, 1.10^6 UFC/mL, 48 h, read by unaided eye
Experimental: as §1, §2, §3

[13] = test system: Pseudoalteromonas hCg-6; format: cell-based, Pseudoalteromonas sp.; conditions: Pseudoalteromonas hCg-6 (producing strain); broth microdilution, 0.1 to 100 µM, 1.10^6 UFC/mL, 48 h, read by unaided eye
Experimental: as §1, §2, §3

C/C=C1/NC(=O)[C@@H](NC(=O)CC(O)CCCCCCC)C(O)CNC(=O)[C@H](C(O)CN)NC(=O)[C@H](C(O)CN)NC(=O)[C@H](CCCNC(=N)N)NC(=O)[C@H](CC(C)C)NC(=O)[C@H](CCN)NC1=O (stereo partly shown) [alt_970] ({Decanoyl(3ξ-OH)}-[Dab(3ξ-OH)][X1][Dab]LR[Dab(3ξ-OH)][Dab(3ξ-OH)]; lactam 1-C)
MIC [1]: 8.8 µM (≈ 8.55 µg/mL) | MIC [2]: 35 µM (≈ 34 µg/mL) | MIC [3]: 0.1 µM (≈ 0.0971 µg/mL) | MIC [4]: 1.1 µM (≈ 1.07 µg/mL) | MIC [5]: >100 µM | LPS binding response (SPR, RU) [6]: the response was halved | cultivability loss of V. tasmaniensis (log reduction of CFU) [7]: 1 log | MIC [8]: 6.25 µM (≈ 6.07 µg/mL) | MIC [9]: 17.6 µM (≈ 17.1 µg/mL) | MIC [10]: 35.2 µM (≈ 34.2 µg/mL) | MIC [11]: 1.1 µM (≈ 1.07 µg/mL) | MIC [12]: >100 µM | MIC [13]: >100 µM
